# Results reported in patent publication US12077503B2, “Substituted cyclic amides and their use as herbicides” (FMC CORPORATION, priority 2015, dated 2024).
# Key:
# Test in all cases: Test C preemergence
# Format in all cases: in vivo
# [1] = system: Galium (catchweed bedstraw, Galium aparine); conditions: for Plant response rating, Galium: scale 0 to 100, 0 no effect, 100 complete control
# In short: (§1)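 Visual 0 (no effect) to 100 (complete control) ratings versus controls, taken 13–15 d after treatment in the greenhouse; dash means no result. Compounds in a surfactant-containing non-phytotoxic solvent blend were applied preemergence to seeds in loam-sand soil or postemergence to 1- to 4-leaf plants (2–18 cm) in peat-based medium.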
# [2] = system: barnyardgrass (Echinochloa crus-galli); conditions: for Plant response rating, Barnyardgrass: scale 0 to 100, 0 no effect, 100 complete control
# In short: as §1
# [3] = system: blackgrass (Alopecurus myosuroides); conditions: for Plant response rating, Blackgrass: scale 0 to 100, 0 no effect, 100 complete control
# In short: as §1
# corn (Zea mays) = conditions: for Plant response rating, Corn: scale 0 to 100, 0 no effect, 100 complete control
# In short: as §1
# [4] = system: crabgrass, large (large crabgrass, Digitaria sanguinalis); conditions: for Plant response rating, Crabgrass, Large: scale 0 to 100, 0 no effect, 100 complete control
# In short: as §1
# [5] = system: foxtail, giant (giant foxtail, Setaria faberii); conditions: for Plant response rating, Foxtail, Giant: scale 0 to 100, 0 no effect, 100 complete control
# In short: as §1
# [6] = system: johnsongrass (Sorghum halepense); conditions: for Plant response rating, Johnsongrass: scale 0 to 100, 0 no effect, 100 complete control
# In short: as §1
# [7] = system: lambsquarters (Chenopodium album); conditions: for Plant response rating, Lambsquarters: scale 0 to 100, 0 no effect, 100 complete control
# In short: as §1
# [8] = system: morningglory (Ipomoea coccinea); conditions: for Plant response rating, Morningglory: scale 0 to 100, 0 no effect, 100 complete control
# In short: as §1
# [9] = system: nutsedge, yellow (yellow nutsedge, Cyperus esculentus); conditions: for Plant response rating, Nutsedge, Yellow: scale 0 to 100, 0 no effect, 100 complete control
# In short: as §1
# [10] = system: oilseed rape (Brassica napus); conditions: for Plant response rating, Oilseed Rape: scale 0 to 100, 0 no effect, 100 complete control
# In short: as §1
# [11] = system: ragweed (common ragweed, Ambrosia elatior); conditions: for Plant response rating, Ragweed: scale 0 to 100, 0 no effect, 100 complete control
# In short: as §1
# [12] = system: ryegrass, Italian (Italian ryegrass, Lolium multiflorum); conditions: for Plant response rating, Ryegrass, Italian: scale 0 to 100, 0 no effect, 100 complete control
# In short: as §1
# soybean (Glycine max) = conditions: for Plant response rating, Soybean: scale 0 to 100, 0 no effect, 100 complete control
# In short: as §1
# [13] = system: velvetleaf (Abutilon theophrasti); conditions: for Plant response rating, Velvetleaf: scale 0 to 100, 0 no effect, 100 complete control
# In short: as §1
# [14] = system: waterhemp (common waterhemp, Amaranthus rudis); conditions: for Plant response rating, Waterhemp: scale 0 to 100, 0 no effect, 100 complete control
# In short: as §1
# [15] = system: wheat (winter wheat, Triticum aestivum); conditions: for Plant response rating, Wheat: scale 0 to 100, 0 no effect, 100 complete control
# In short: as §1
# [16] = 31 g ai/ha, 0 is no effect, 100 is complete control
smiles,measurement,setting,value
CN1CC(c2cccc(OC(F)F)c2)C(C(=O)Nc2ccccc2F)C1=O (centres unmarked) [Compound 618],"Plant response rating (scale of 0 to 100), Galium",[1]; [16],0
same,"Plant response rating, Galium",[1]; 62 g ai/ha,0
same,"Plant response rating, Galium",[1]; 125 g ai/ha,85
same,"Plant response rating, Galium",[1]; 250 g ai/ha,90
same,"Plant response rating (scale of 0 to 100), Barnyardgrass",[2]; [16],95
same,"Plant response rating, Barnyardgrass",[2]; 62 g ai/ha,95
same,"Plant response rating, Barnyardgrass",[2]; 125 g ai/ha,95
same,"Plant response rating, Barnyardgrass",[2]; 250 g ai/ha,98
same,"Plant response rating (scale of 0 to 100), Blackgrass",[3]; [16],0
same,"Plant response rating, Blackgrass",[3]; 62 g ai/ha,10
same,"Plant response rating, Blackgrass",[3]; 125 g ai/ha,60
same,"Plant response rating, Blackgrass",[3]; 250 g ai/ha,80
same,"Plant response rating (scale of 0 to 100), Corn",corn (Zea mays); [16],30
same,"Plant response rating, Corn",corn (Zea mays); 62 g ai/ha,50
same,"Plant response rating, Corn",corn (Zea mays); 125 g ai/ha,75
same,"Plant response rating, Corn",corn (Zea mays); 250 g ai/ha,85
same,"Plant response rating (scale of 0 to 100), Crabgrass, Large",[4]; [16],100
same,"Plant response rating, Crabgrass, Large",[4]; 62 g ai/ha,100
same,"Plant response rating, Crabgrass, Large",[4]; 125 g ai/ha,100
same,"Plant response rating, Crabgrass, Large",[4]; 250 g ai/ha,100
same,"Plant response rating (scale of 0 to 100), Foxtail, Giant",[5]; [16],90
same,"Plant response rating, Foxtail, Giant",[5]; 62 g ai/ha,90
same,"Plant response rating, Foxtail, Giant",[5]; 125 g ai/ha,90
same,"Plant response rating, Foxtail, Giant",[5]; 250 g ai/ha,95
same,"Plant response rating (scale of 0 to 100), Johnsongrass",[6]; [16],20
same,"Plant response rating, Johnsongrass",[6]; 62 g ai/ha,60
same,"Plant response rating, Johnsongrass",[6]; 125 g ai/ha,85
same,"Plant response rating, Johnsongrass",[6]; 250 g ai/ha,85
same,"Plant response rating (scale of 0 to 100), Lambsquarters",[7]; [16],50
same,"Plant response rating, Lambsquarters",[7]; 62 g ai/ha,50
same,"Plant response rating, Lambsquarters",[7]; 125 g ai/ha,70
same,"Plant response rating, Lambsquarters",[7]; 250 g ai/ha,75
same,"Plant response rating (scale of 0 to 100), Morningglory",[8]; [16],0
same,"Plant response rating, Morningglory",[8]; 62 g ai/ha,0
same,"Plant response rating, Morningglory",[8]; 125 g ai/ha,10
same,"Plant response rating, Morningglory",[8]; 250 g ai/ha,5
same,"Plant response rating (scale of 0 to 100), Nutsedge, Yellow",[9]; [16],0
same,"Plant response rating, Nutsedge, Yellow",[9]; 62 g ai/ha,0
same,"Plant response rating, Nutsedge, Yellow",[9]; 125 g ai/ha,0
same,"Plant response rating, Nutsedge, Yellow",[9]; 250 g ai/ha,10
same,"Plant response rating (scale of 0 to 100), Oilseed Rape",[10]; [16],60
same,"Plant response rating, Oilseed Rape",[10]; 62 g ai/ha,85
same,"Plant response rating, Oilseed Rape",[10]; 125 g ai/ha,90
same,"Plant response rating, Oilseed Rape",[10]; 250 g ai/ha,90
same,"Plant response rating (scale of 0 to 100), Ragweed",[11]; [16],40
same,"Plant response rating, Ragweed",[11]; 62 g ai/ha,40
same,"Plant response rating, Ragweed",[11]; 125 g ai/ha,65
same,"Plant response rating, Ragweed",[11]; 250 g ai/ha,80
same,"Plant response rating (scale of 0 to 100), Ryegrass, Italian",[12]; [16],45
same,"Plant response rating, Ryegrass, Italian",[12]; 62 g ai/ha,50
same,"Plant response rating, Ryegrass, Italian",[12]; 125 g ai/ha,45
same,"Plant response rating, Ryegrass, Italian",[12]; 250 g ai/ha,55
same,"Plant response rating (scale of 0 to 100), Soybean",soybean (Glycine max); [16],0
same,"Plant response rating, Soybean",soybean (Glycine max); 62 g ai/ha,10
same,"Plant response rating, Soybean",soybean (Glycine max); 125 g ai/ha,0
same,"Plant response rating, Soybean",soybean (Glycine max); 250 g ai/ha,0
same,"Plant response rating (scale of 0 to 100), Velvetleaf",[13]; [16],0
same,"Plant response rating, Velvetleaf",[13]; 62 g ai/ha,5
same,"Plant response rating, Velvetleaf",[13]; 125 g ai/ha,55
same,"Plant response rating, Velvetleaf",[13]; 250 g ai/ha,60
same,"Plant response rating (scale of 0 to 100), Waterhemp",[14]; [16],60
same,"Plant response rating, Waterhemp",[14]; 62 g ai/ha,60
same,"Plant response rating, Waterhemp",[14]; 125 g ai/ha,65
same,"Plant response rating, Waterhemp",[14]; 250 g ai/ha,85
same,"Plant response rating (scale of 0 to 100), Wheat",[15]; [16],20
same,"Plant response rating, Wheat",[15]; 62 g ai/ha,30
same,"Plant response rating, Wheat",[15]; 125 g ai/ha,75
same,"Plant response rating, Wheat",[15]; 250 g ai/ha,80
